Experimental data: PubChem BioAssay (NCI)
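Step 1: Grow cells in 96-well plates. Step 2: Expose to compound for 48 hours at 5 concentrations. Step 3: Interpolate endpoints linearly; if unreached, use highest concentration. GI50 is the concentration that inhibits growth by half. TGI denotes the concentration required for complete inhibition of growth.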

Tests used:
Assay in all cases: NCI-60 cell line screen, 48 h
TK-10 renal = test system: TK-10 renal
OVCAR-5 ovarian = test system: OVCAR-5 ovarian
SK-MEL-28 melanoma = test system: SK-MEL-28 melanoma
UACC-257 melanoma = test system: UACC-257 melanoma
HT29 colon = test system: HT29 colon
MCF7 breast = test system: MCF7 breast
M14 melanoma = test system: M14 melanoma
HS 578T breast = test system: HS 578T breast
KM12 colon = test system: KM12 colon
PC-3 prostate = test system: PC-3 prostate
CAKI-1 renal = test system: CAKI-1 renal
786-0 renal = test system: 786-0 renal
T-47D breast = test system: T-47D breast
SF-539 CNS = test system: SF-539 CNS
CCRF-CEM leukemia = test system: CCRF-CEM leukemia
SW-620 colon = test system: SW-620 colon
EKVX NSCLC = test system: EKVX NSCLC
U251 CNS = test system: U251 CNS
NCI-H460 lung = test system: NCI-H460 lung
NCI-H23 lung = test system: NCI-H23 lung
COLO 205 colon = test system: COLO 205 colon
HOP-62 NSCLC = test system: HOP-62 NSCLC
OVCAR-4 ovarian = test system: OVCAR-4 ovarian
A549 NSCLC = test system: A549 NSCLC
MDA-MB-435 = test system: MDA-MB-435
RPMI-8226 leukemia = test system: RPMI-8226 leukemia
MALME-3M melanoma = test system: MALME-3M melanoma
SK-OV-3 ovarian = test system: SK-OV-3 ovarian
UO-31 renal = test system: UO-31 renal
SK-MEL-5 melanoma = test system: SK-MEL-5 melanoma

SMILES: O=C(CSc1nnc(-c2ccc(-c3nc4ccccc4[nH]3)cc2)o1)Nc1ccc(Br)cc1
- GI50 (TK-10 renal): 14.8 µM
- TGI (TK-10 renal): 29.6 µM
- GI50 (OVCAR-5 ovarian): 6.53 µM
- TGI (OVCAR-5 ovarian): 20.4 µM
- GI50 (SK-MEL-28 melanoma): 2.62 µM
- TGI (SK-MEL-28 melanoma): 7.91 µM
- GI50 (UACC-257 melanoma): 4.76 µM
- TGI (UACC-257 melanoma): 20.5 µM
- GI50 (HT29 colon): 2.87 µM
- TGI (HT29 colon): 12.8 µM
- GI50 (MCF7 breast): 2.88 µM
- TGI (MCF7 breast): 12.5 µM
- GI50 (M14 melanoma): 3.82 µM
- TGI (M14 melanoma): 17.8 µM
- GI50 (HS 578T breast): 3.39 µM
- TGI (HS 578T breast): 16.3 µM
- GI50 (KM12 colon): 3.98 µM
- TGI (KM12 colon): 18.6 µM
- GI50 (PC-3 prostate): 2.57 µM
- TGI (PC-3 prostate): 8.99 µM
- GI50 (CAKI-1 renal): 2.03 µM
- TGI (CAKI-1 renal): 4.83 µM
- GI50 (786-0 renal): 2.17 µM
- TGI (786-0 renal): 4.29 µM
- GI50 (T-47D breast): 3.81 µM
- TGI (T-47D breast): 20.2 µM
- GI50 (SF-539 CNS): 2 µM
- TGI (SF-539 CNS): 4.7 µM
- GI50 (CCRF-CEM leukemia): 3.41 µM
- TGI (CCRF-CEM leukemia): 15.8 µM
- GI50 (SW-620 colon): 3.1 µM
- TGI (SW-620 colon): 11.6 µM
- GI50 (EKVX NSCLC): 4.2 µM
- TGI (EKVX NSCLC): 16.3 µM
- GI50 (U251 CNS): 6.78 µM
- TGI (U251 CNS): 20.3 µM
- GI50 (NCI-H460 lung): 1.95 µM
- TGI (NCI-H460 lung): 4.54 µM
- GI50 (NCI-H23 lung): 3.22 µM
- TGI (NCI-H23 lung): 12.4 µM
- GI50 (COLO 205 colon): 10.6 µM
- TGI (COLO 205 colon): 30.5 µM
- GI50 (HOP-62 NSCLC): 2.88 µM
- TGI (HOP-62 NSCLC): 8.21 µM
- GI50 (OVCAR-4 ovarian): 3.23 µM
- TGI (OVCAR-4 ovarian): 12.3 µM
- GI50 (A549 NSCLC): 2.4 µM
- TGI (A549 NSCLC): 6.24 µM
- GI50 (MDA-MB-435): 2.11 µM
- TGI (MDA-MB-435): 7.73 µM
- GI50 (RPMI-8226 leukemia): 3.24 µM
- TGI (RPMI-8226 leukemia): 36.1 µM
- GI50 (MALME-3M melanoma): 2.37 µM
- TGI (MALME-3M melanoma): 6.33 µM
- GI50 (SK-OV-3 ovarian): 12.1 µM
- TGI (SK-OV-3 ovarian): 34.9 µM
- GI50 (UO-31 renal): 5.91 µM
- TGI (UO-31 renal): 18.9 µM
- GI50 (SK-MEL-5 melanoma): 4.8 µM
